Experimental data taken from patent US20130210057A1, “USE OF LABEL-FREE BIOSENSORS TO UNDERSTAND AND IDENTIFY TREATMENT FOR CANCER” (CORNING INCORPORATED, priority 2012, published 2013).
“Also recorded” adds a separate entry of the source. Read-outs that look alike come from different tables or passages of the source. Ends that are not written are not given here.

How the values were obtained:
HCT116 parental cells = experiment: cAMP-Glo assay; assay type: cell-based, human; details: 15 minutes incubation
Description: (§1) Cells were cultured in the McCoy's 5a complete growth medium overnight. The next day cAMP-Glo assay was performed according to manufacturer's instruction (Promega, Cat# V1502). Briefly, cell culture medium was removed by flipping the plate. […] Luminescence was measured using Tecan Salim II plate reader.
(§2) To screen endogenous receptors and their coupled signaling pathways, we first assembled a GPCR agonist focused library (Table 1). The library consists of 120 GPCR agonists covering over 150 known GPCRs, based on their known pharmacology including polypharmacology. For small molecule chemical agonists, the dose used was 10 micromolar. For peptide agonists, the dose used was 1 micromolar. For lipid agonists, the dose used was also 1 micromolar. For both peptides and lipids, these agonists were suspended in a solution containing 0.05% bovine […] to increase their stability.
(§3) cAMP assays were employed to investigate endogenous Gs-coupled receptors. FIG. 2 is a graph illustrating cAMP accumulation induced by GPCR agonists. The percentage of cAMP level after normalized to the forskolin-induced cAMP increase was plotted as a function of GPCR agonists. PCT116 parental (squares) was compared with HCT116-PTEN Null (diamonds) cell line.

HCT116 PTEN null cells = experiment: cAMP-Glo assay; assay type: cell-based, human; details: 15 minutes incubation
Description: as §1, §2, §3

[1] = system: HCT116 parental cell line; experiment: Label-free RWG biosensor DMR assay; assay type: cell-based, human; details: for kinase inhibitor drug-induced DMR signal: 16 μM
From the text: (§4) EPIC® beta version wavelength interrogation system (Corning Inc., NY) was used for whole cell sensing. This system consists of a temperature-control unit, an optical detection unit, and an on-board liquid handling unit with robotics. The detection unit is centered on integrated fiber optics, and enables kinetic measures of cellular responses with a time interval of ˜15 sec. Also EPIC® commercial systems were used, with a liquid handler accessory attached to EPIC® reader system. Also, an Epic® RWG imager can be used.
(§5) The resonant waveguide grating (RWG) biosensor is capable of detecting minute changes in local index of refraction near the sensor surface and the waveguide thin film having gratings provide a cell culture surface. Since the local index of refraction within a cell is a function of density and its distribution of biomass (e.g., proteins, molecular complexes), the biosensor exploits its evanescent wave to non-invasively detect ligand-induced Dynamic Mass Redistribution (DMR) in native cells. When a cell is stimulated, it responds. That response is a redistribution of biomass in the cell. Upon stimulation, proteins, protein complexes, and/or organelles in the cells move. The evanescent wave extends into the cells and exponentially decays over distance, leading to a characteristic sensing depth of ˜150 nm. Any optical response mediated through receptor activation only represents an average over the portion of the cell that the evanescent wave is sampling. The aggregation of many cellular events downstream to the receptor activation leads to a DMR signal having characteristic kinetics and amplitudes.
(§6) All assays were carried out at a controlled temperature (28° C.). At least two independent sets of experiments, each with at least three replicates, were performed.

[2] = system: HCT116-PTEN Null cell line; experiment: Label-free RWG biosensor DMR assay; assay type: cell-based, human; details: for kinase inhibitor drug-induced DMR signal: HCT116-PTEN null; for kinase inhibitor drug-induced DMR signal / sensitivity of kinase inhibitor drug-induced DMR to PTEN deletion: 16 μM; for sensitivity of kinase inhibitor drug-induced DMR to PTEN deletion: PTEN null vs parental
From the text: as §4, §5, §6

[3] = system: IGF1-induced DMR in HCT116-PTEN Null cell line; experiment: DMR reporter assay: modulation of IGF1-induced DMR by kinase inhibitor pretreatment; details: 2 nM IGF1; for alteration of the late response of the IGF1 DMR (signal at 50 min poststimulation) / impact on the early P-DMR amplitude of the IGF1 DMR: HCT116-PTEN Null; for alteration of the late response of the IGF1 DMR (signal at 50 min poststimulation): about 1 hr pretreatment at different doses; for impact on the early P-DMR amplitude of the IGF1 DMR / potency to increase the late IGF1 response, PTEN-deleted vs parental cell line: about 1 hr pretreatment
[4] = system: IGF1-induced DMR in HCT116 parental cell line; experiment: as above; details: 2 nM IGF1; for alteration of the late response of the IGF1 DMR (signal at 50 min poststimulation): about 1 hr pretreatment at different doses; for impact on the early P-DMR amplitude of the IGF1 DMR: about 1 hr pretreatment

Compound: CCNC(=O)[C@H]1O[C@@H](n2cnc3c(N)nc(NCCc4ccc(CCC(=O)O)cc4)nc32)[C@H](O)[C@@H]1O [CGS21680]
- cAMP accumulation (normalized to forskolin-induced cAMP increase) (HCT116 parental cells): detectable cAMP accumulation
- cAMP accumulation (normalized to forskolin-induced cAMP increase) (HCT116 PTEN null cells): detectable cAMP accumulation

Compound: CCCCC[C@H](O)/C=C/[C@H]1[C@H](O)CC(=O)[C@@H]1C/C=C\CCCC(=O)O [PGE2, Peostaglandin E2]
- cAMP accumulation (normalized to forskolin-induced cAMP increase) (HCT116 parental cells): detectable cAMP accumulation
- cAMP accumulation (normalized to forskolin-induced cAMP increase) (HCT116 PTEN null cells): detectable cAMP accumulation

Compound: Nc1ncnc2c1ncn2[C@@H]1O[C@H](CO)[C@@H](O)[C@H]1O [adenosine, Adenosine]
- effect of cholera toxin (CTx) pretreatment on the agonist DMR [1]: almost completely suppressed
- receptor / signaling pathway activated (pathway deconvolution of DMR with toxins) ([1]; HCT116 parental, 10 μM agonist): primarily activates endogenous Gs-coupled adenosine A2B receptors
- effect of pertussis toxin (PTx) pretreatment on the agonist DMR ([1]; HCT116 parental, PTX 100 ng/ml overnight, 10 μM agonist): only accelerated
- effect of cholera toxin (CTx) pretreatment on the agonist DMR [2]: almost completely suppressed
- agonist DMR in PTEN deleted cell line compared to parental cell line (sensitivity to PTEN deletion) ([2]; 10 μM agonist (EGF, IGF1 1 μM)): greatly different
- receptor / signaling pathway activated (pathway deconvolution of DMR with toxins) ([2]; HCT116-PTEN Null, 10 μM agonist): primarily activates endogenous Gs-coupled adenosine A2B receptors
- effect of pertussis toxin (PTx) pretreatment on the agonist DMR ([2]; HCT116-PTEN Null, PTX 100 ng/ml overnight, 10 μM agonist): only accelerated

Compound: CNC[C@H](O)c1ccc(O)c(O)c1 [epinephrine, (−)epinephrine]
- effect of pertussis toxin (PTx) pretreatment on the agonist DMR [1]: little effect
- receptor / signaling pathway activated (pathway deconvolution of DMR with toxins) [1]: primarily activates endogenous Gs-coupled beta1-adrenergic receptor
- agonist DMR in PTEN deleted cell line compared to parental cell line (sensitivity to PTEN deletion) [2]: greatly differed
- effect of pertussis toxin (PTx) pretreatment on the agonist DMR [2]: little effect
- receptor / signaling pathway activated (pathway deconvolution of DMR with toxins) [2]: primarily activates endogenous Gs-coupled beta1-adrenergic receptor

Compound: C#Cc1cccc(Nc2ncnc3cc(OCCOC)c(OCCOC)cc23)c1 [erlotinib]
- alteration of the late response of the IGF1 DMR (signal at 50 min poststimulation) [3]: increased in the dose-dependent manner
- impact on the early P-DMR amplitude of the IGF1 DMR [3]: little impact
- potency to increase the late IGF1 response, PTEN-deleted vs parental cell line [3]: lower
- alteration of the late response of the IGF1 DMR (signal at 50 min poststimulation) [4]: increased in the dose-dependent manner
- impact on the early P-DMR amplitude of the IGF1 DMR [4]: little impact
- kinase inhibitor drug-induced DMR signal ([1]; HCT116 parental): very small DMR signals
- kinase inhibitor drug-induced DMR signal [2]: very small DMR signals

Compound: CO[C@H]1C[C@@H]2CC[C@@H](C)[C@@](O)(O2)C(=O)C(=O)N2CCCC[C@H]2C(=O)O[C@H]([C@H](C)C[C@@H]2CC[C@@H](OCCO)[C@H](OC)C2)CC(=O)[C@H](C)/C=C(\C)[C@@H](O)[C@@H](OC)C(=O)[C@H](C)C[C@H](C)/C=C/C=C/C=C/1C [everolimus]
- kinase inhibitor drug-induced DMR signal ([1]; HCT116 parental): detectable DMR
- sensitivity of kinase inhibitor drug-induced DMR to PTEN deletion [2]: suppressed or decreased the kinetics

Compound: C=C[C@@]1(C)CC(=O)[C@]2(O)[C@@]3(C)[C@@H](O)CCC(C)(C)[C@@H]3[C@H](O)[C@H](OC(C)=O)[C@@]2(C)O1 [forskolin]
- DMR signal amplitude ([1]; HCT116 parental, GPCR agonist library profiling, 3-45 min poststimulation): greater than 80 picometer
- DMR signal amplitude ([2]; HCT116-PTEN Null, GPCR agonist library profiling, 3-45 min poststimulation): greater than 80 picometer

Compound: COc1cc2ncnc(Nc3ccc(F)c(Cl)c3)c2cc1OCCCN1CCOCC1 [gefitinib]
- alteration of the late response of the IGF1 DMR (signal at 50 min poststimulation) [3]: increased in the dose-dependent manner
- impact on the early P-DMR amplitude of the IGF1 DMR [3]: little impact
- potency to increase the late IGF1 response, PTEN-deleted vs parental cell line [3]: lower
- alteration of the late response of the IGF1 DMR (signal at 50 min poststimulation) [4]: increased in the dose-dependent manner
- impact on the early P-DMR amplitude of the IGF1 DMR [4]: little impact

Compound: Cc1ccc(NC(=O)c2ccc(CN3CCN(C)CC3)cc2)cc1Nc1nccc(-c2cccnc2)n1 [imatinib]
- alteration of the late response of the IGF1 DMR (signal at 50 min poststimulation) [4]: dose-dependently increased
- sensitivity of kinase inhibitor drug-induced DMR to PTEN deletion [2]: sensitive; also recorded: great sensitivity

Compound: CS(=O)(=O)CCNCc1ccc(-c2ccc3ncnc(Nc4ccc(OCc5cccc(F)c5)c(Cl)c4)c3c2)o1 [lapatinib]
- kinase inhibitor drug-induced DMR signal ([1]; HCT116 parental): did not result in any detectable DMR
- kinase inhibitor drug-induced DMR signal [2]: did not result in any detectable DMR

Compound: Cc1cn(-c2cc(NC(=O)c3ccc(C)c(Nc4nccc(-c5cccnc5)n4)c3)cc(C(F)(F)F)c2)cn1 [nilotinib]
- sensitivity of kinase inhibitor drug-induced DMR to PTEN deletion [2]: sensitive

Compound: CNC(=O)c1cc(Oc2ccc(NC(=O)Nc3ccc(Cl)c(C(F)(F)F)c3)cc2)ccn1 [sorafenib]
- kinase inhibitor drug-induced DMR signal ([1]; HCT116 parental): did not result in any detectable DMR
- kinase inhibitor drug-induced DMR signal [2]: did not result in any detectable DMR

Compound: CO[C@H]1C[C@@H]2CC[C@@H](C)[C@@](O)(O2)C(=O)C(=O)N2CCCC[C@H]2C(=O)O[C@H]([C@H](C)C[C@@H]2CC[C@@H](OC(=O)C(C)(CO)CO)[C@H](OC)C2)CC(=O)[C@H](C)/C=C(\C)[C@@H](O)[C@@H](OC)C(=O)[C@H](C)C[C@H](C)/C=C/C=C/C=C/1C [temsirolimus]
- kinase inhibitor drug-induced DMR signal ([1]; HCT116 parental): detectable DMR
- sensitivity of kinase inhibitor drug-induced DMR to PTEN deletion [2]: suppressed or decreased the kinetics

Compound: Adrenomedulin (YRQSMNNFQGLRSFGCRFGTCTVQKLAHQIYQFTDKDKDNVAPRSKISPQGY; ends and bridges not checked; cysteine pairing not given here; UniProt P35318 95-146, looked up) [peptide agonist of adrenomedulin receptor]
- cAMP accumulation (normalized to forskolin-induced cAMP increase) (HCT116 parental cells): detectable cAMP accumulation
- cAMP accumulation (normalized to forskolin-induced cAMP increase) (HCT116 PTEN null cells): detectable cAMP accumulation

Compound: Calcitonin (CGNLSTCMLGTYTQDFNKFHTFPQTAIGVGAP; ends and bridges not checked; cysteine pairing not given here; UniProt P01258 85-116, looked up) [peptide agonist of calcitonin receptor]
- cAMP accumulation (normalized to forskolin-induced cAMP increase) (HCT116 parental cells): detectable cAMP accumulation
- cAMP accumulation (normalized to forskolin-induced cAMP increase) (HCT116 PTEN null cells): detectable cAMP accumulation

Compound: EGF: epidermal growth factor (EGF) (NSDSECPLSHDGYCLHDGVCMYIEALDKYACNCVVGYIGERCQYRDLKWWELR; Epidermal growth factor; UniProt P01133 971-1023, looked up)
- agonist DMR in PTEN deleted cell line compared to parental cell line (sensitivity to PTEN deletion) ([2]; 10 μM agonist (EGF, IGF1 1 μM)): insensitive

Compound: IGF1: insulin growth factor-1 (IGF1)
- agonist-induced DMR signal ([1]; HCT116 parental, untreated, 10 μM agonist (EGF, IGF1 1 μM)): robust DMR signal
- agonist DMR in PTEN deleted cell line compared to parental cell line (sensitivity to PTEN deletion) ([2]; 10 μM agonist (EGF, IGF1 1 μM)): clear effects; also recorded: greater sensitivity
- agonist-induced DMR signal ([2]; HCT116-PTEN Null, untreated, 10 μM agonist (EGF, IGF1 1 μM)): robust DMR signal

Compound: Vasoactive intestinal peptide (HSDAVFTDNYTRLRKQMAVKKYLNSILN; ends and bridges not checked; UniProt P01282 125-152, looked up) [VIP]
- cAMP accumulation (normalized to forskolin-induced cAMP increase) (HCT116 parental cells): detectable cAMP accumulation
- cAMP accumulation (normalized to forskolin-induced cAMP increase) (HCT116 PTEN null cells): detectable cAMP accumulation
